From patent US9284333B2, “Fused pyrroledicarboxamides and their use as pharmaceuticals” (SANOFI, priority 2012, dated 2016)

Molecular target: Human TASK-1 channels (Homo sapiens (Human), UniProt O14649)
Assay: Determination of the activity on the TASK-1 channel in Xenopus oocytes (two-microelectrode voltage clamp)
Format: cell-based
Details: compound concentration 5 μM
In short: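 Current during 500 ms pulses to 40 mV from a −90 mV hold was recorded in oocytes expressing human TASK-1 for two days after cRNA injection. Compounds were added cumulatively to the ND96 bath (pH 7.4, room temperature). IC50 came from dose-response fitting of inhibition relative to pre-compound current.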

Sequence of Human TASK-1 channels (O14649 whole entry): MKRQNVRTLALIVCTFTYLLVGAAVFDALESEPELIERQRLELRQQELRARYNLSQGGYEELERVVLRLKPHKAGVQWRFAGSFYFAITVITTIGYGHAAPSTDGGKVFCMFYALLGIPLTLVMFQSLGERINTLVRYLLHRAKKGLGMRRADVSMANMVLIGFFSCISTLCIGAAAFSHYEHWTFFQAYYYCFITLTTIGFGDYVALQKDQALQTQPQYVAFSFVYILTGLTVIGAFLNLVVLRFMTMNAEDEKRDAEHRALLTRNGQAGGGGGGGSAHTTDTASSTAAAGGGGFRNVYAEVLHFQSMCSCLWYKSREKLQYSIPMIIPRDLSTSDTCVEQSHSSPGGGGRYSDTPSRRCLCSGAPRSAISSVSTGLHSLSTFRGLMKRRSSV

inhibition at 5 µM [%] | Compound
67 | CC[C@@H](NC(=O)c1cc(C(=O)N2CCC[C@@H]2c2ccc(C(F)(F)F)nc2)n2c1COCC2)c1ccccc1 [16ga, 6-[(R)-2-(6-Trifluoromethyl-pyridin-3-yl)-pyrrolidine-1-carbonyl]-3,4-dihydro-1H-pyrrolo[2,1-c][1,4]oxazine-8-carboxylic acid ((R)-1-phenyl-propyl)-amide]
62 | CC[C@@H](NC(=O)c1cc(C(=O)N2CCC[C@@H]2C)c2n1CCOC2)c1ccc(C(F)(F)F)nc1 [16nk, 8-((S)-2-Methyl-pyrrolidine-1-carbonyl)-3,4-dihydro-1H-pyrrolo[2,1-c][1,4]oxazine-6-carboxylic acid [(R)-1-(6-trifluoromethyl-pyridin-3-yl)-propyl]-amide]
82 | CC[C@@H](NC(=O)c1cc(C(=O)N[C@H](CC)c2nccs2)n2c1COCC2)c1ccc(C(F)(F)F)nc1 (racemic) [16pd, 3,4-Dihydro-1H-pyrrolo[2,1-c][1,4]oxazine-6,8-dicarboxylic acid 6-[((R)-1-thiazol-2-yl-propyl)-amide] 8-{[(R)-1-(6-trifluoromethyl-pyridin-3-yl)-propyl]-amide}]

Same assay, conditions: human TASK-1 expressed in Xenopus oocytes, room temperature; read-out: IC50 value for TASK-1 inhibition

Compound | IC50 [µM]
CC[C@@H](NC(=O)c1cc(C(=O)NCC(C)(C)O)n2c1COCC2)c1ccccc1 [16jd, 3,4-Dihydro-1H-pyrrolo[2,1-c][1,4]oxazine-6,8-dicarboxylic acid 6-[(2-hydroxy-2-methyl-propyl)-amide] 8-[((R)-1-phenyl-propyl)-amide]] | 2.5
CC(NC(=O)c1cc(C(=O)N[C@H](C)c2ccc(F)cc2)n2c1CCCC2)c1ncccn1 (stereo partly drawn) [16lu, 5,6,7,8-Tetrahydro-indolizine-1,3-dicarboxylic acid 3-{[(R)-1-(4-fluoro-phenyl)-ethyl]-amide} 1-[(1-pyrimidin-2-yl-ethyl)-amide]] | 0.45
CC[C@@H](NC(=O)c1cc(C(=O)NC(C)c2nnn(CC)n2)n2c1COCC2)c1ccccc1 (stereo partly drawn) [16rq, 3,4-Dihydro-1H-pyrrolo[2,1-c][1,4]oxazine-6,8-dicarboxylic acid 6-{[1-(2-ethyl-2H-tetrazol-5-yl)-ethyl]-amide} 8-[((R)-1-phenyl-propyl)-amide]] | 0.75
CC[C@@H](NC(=O)c1cc(C(=O)N2CC[C@H](OCC3CC3)C2)n2c1COCC2)c1ccccc1 [16ev, 6-((S)-3-Cyclopropylmethoxy-pyrrolidine-1-carbonyl)-3,4-dihydro-1H-pyrrolo[2,1-c][1,4]oxazine-8-carboxylic acid ((R)-1-phenyl-propyl)-amide] | 0.33
CC[C@@H](NC(=O)c1cc(C(=O)N[C@H](CC)c2ccc(F)cc2)n2c1C(C)OCC2)c1ccccc1 (stereo partly shown) [16lh] | 0.19
CC[C@@H](NC(=O)c1cc(C(=O)NC2CCCc3nccnc32)n2c1COCC2)c1ccccc1 (stereo partly drawn) [16io, 3,4-Dihydro-1H-pyrrolo[2,1-c][1,4]oxazine-6,8-dicarboxylic acid 8-[((R)-1-phenyl-propyl)-amide] 6-[(5,6,7,8-tetrahydro-quinoxalin-5-yl)-amide]] | 0.94
CC[C@@H](NC(=O)c1cc(C(=O)N2CCC[C@@H]2C)n2c1COCC2)c1ncc(C(F)(F)F)cn1 [16bh, 6-((S)-2-Methyl-pyrrolidine-1-carbonyl)-3,4-dihydro-1H-pyrrolo[2,1-c][1,4]oxazine-8-carboxylic acid [(R)-1-(5-trifluoromethyl-pyrimidin-2-yl)-propyl]-amide] | 0.92
CC[C@@H](NC(=O)c1cc(C(=O)N2CCC(F)(F)CC2)n2c1CCCC2)c1ccccc1 [16mo, 3-(4,4-Difluoro-piperidine-1-carbonyl)-5,6,7,8-tetrahydro-indolizine-1-carboxylic acid ((R)-1-phenyl-propyl)-amide] | 1.9
CC(C)[C@@H](NC(=O)c1cc(C(=O)N2CCC[C@@H]2C)n2c1COCC2)c1ccc(C(F)(F)F)nc1 [16aq, 6-((S)-2-Methyl-pyrrolidine-1-carbonyl)-3,4-dihydro-1H-pyrrolo[2,1-c][1,4]oxazine-8-carboxylic acid [(R)-2-methyl-1-(6-trifluoromethyl-pyridin-3-yl)-propyl]-amide] | 0.46
CC[C@@H](NC(=O)c1cc(C(=O)NC(C)c2ccno2)n2c1COCC2)c1ccccc1 (stereo partly drawn) [16hh, 3,4-Dihydro-1H-pyrrolo[2,1-c][1,4]oxazine-6,8-dicarboxylic acid 6-[(1-isoxazol-5-yl-ethyl)-amide] 8-[((R)-1-phenyl-propyl)-amide]] | 1
CC[C@@H](NC(=O)c1cc(C(=O)N[C@H](CC)c2cccnc2OC)n2c1COCC2)c1ccccc1 [16ig, 3,4-Dihydro-1H-pyrrolo[2,1-c][1,4]oxazine-6,8-dicarboxylic acid 6-{[(R)-1-(2-methoxy-pyridin-3-yl)-propyl]-amide} 8-[((R)-1-phenyl-propyl)-amide]] | 0.24
CC[C@@H](NC(=O)c1cc(C(=O)N[C@H](C)c2ccc(OC)cc2)n2c1CCCC2)c1ccccc1 [16mt, 5,6,7,8-Tetrahydro-indolizine-1,3-dicarboxylic acid 3-{[(R)-1-(4-methoxy-phenyl)-ethyl]-amide} 1-[((R)-1-phenyl-propyl)-amide]] | 0.32
3,4-Dihydro-1H-pyrrolo[2,1-c][1,4]oxazine-6,8-dicarboxylic acid 6-{[(R)-1-(4-fluoro-phenyl)-ethyl]-amide} 8-{[(S)-1-(5-methoxy-pyrazin-2-yl)-propyl]-amide} [16dv] | 0.19
CC[C@@H](NC(=O)c1cc(C(=O)N[C@H](CC)c2cnccn2)n2c1COCC2)c1ccccc1 [16hw, 3,4-Dihydro-1H-pyrrolo[2,1-c][1,4]oxazine-6,8-dicarboxylic acid 8-[((R)-1-phenyl-propyl)-amide] 6-[((R)-1-pyrazin-2-yl-propyl)-amide]] | 0.36
CCC(NC(=O)c1cc(C(=O)N2CCC[C@@H]2C)n2c1COCC2)c1nccs1 (stereo partly drawn) [16ae, 6-((S)-2-Methyl-pyrrolidine-1-carbonyl)-3,4-dihydro-1H-pyrroIo[2,1-c][1,4]oxazine-8-carboxylic acid (1-thiazol-2-yl-propyl)-amide] | 0.67

Other lines, results leading:

IC50 [µM] | Compound
0.073 | CC[C@@H](NC(=O)c1cc(C(=O)N2CCC[C@@H]2C)n2c1COCC2)c1ccc(OC)c(Cl)c1 [16ch, 6-((S)-2-Methyl-pyrrolidine-1-carbonyl)-3,4-dihydro-1H-pyrrolo[2,1-c][1,4]oxazine-8-carboxylic acid [(R)-1-(3-chloro-4-methoxy-phenyl)-propyl]-amide]
0.11 | CC[C@@H](NC(=O)c1cc(C(=O)NCc2ccccc2)n2c1CCCC2)c1ccccc1 [16nf, 5,6,7,8-Tetrahydro-indolizine-1,3-dicarboxylic acid 3-benzylamide 1-[((R)-1-phenyl-propyl)-amide]]
0.051 | CC[C@@H](NC(=O)c1cc(C(=O)N[C@H](CC)c2ccccc2)n2c1CCCC2)c1ccccc1 [16ma, 5,6,7,8-Tetrahydro-indolizine-1,3-dicarboxylic acid bis-[((R)-1-phenyl-propyl)-amide]]
0.17 | CC[C@@H](NC(=O)c1cc(C(=O)NCc2cnccn2)n2c1COCC2)c1ccc(F)cc1Cl [16no, 3,4-Dihydro-1H-pyrrolo[2,1-c][1,4]oxazine-6,8-dicarboxylic acid 8-{[(R)-1-(2-chloro-4-fluoro-phenyl)-propyl]-amide} 6-[(pyrazin-2-ylmethyl)-amide]]
0.049 | CC[C@@H](NC(=O)c1cc(C(=O)N2CCCC2)n2c1COCC2)c1ccc(F)cc1F [16de]
0.17 | CCOC(=O)[C@H](C)N(C)C(=O)c1cc(C(=O)N[C@H](CC)c2ccccc2)c2n1CCOC2 [16l, (S)-2-{Methyl-[8-((R)-1-phenyl-propylcarbamoyl)-3,4-dihydro-1H-pyrrolo[2,1-c][1,4]oxazine-6-carbonyl]-amino}-propionic acid ethyl ester]
0.054 | CC[C@@H](NC(=O)c1cc(C(=O)N[C@H](C)c2ccc(F)cc2)n2c1COCC2)c1ccc(C(F)(F)F)cn1 [16eg, 3,4-Dihydro-1H-pyrrolo[2,1-c][1,4]oxazine-6,8-dicarboxylic acid 6-{[(R)-1-(4-fluoro-phenyl)-ethyl]-amide} 8-{[(R)-1-(5-trifluoromethyl-pyridin-2-yl)-propyl]-amide}]
0.049 | CC[C@@H](NC(=O)c1cc(C(=O)N2CCC[C@@H]2C)n2c1COCC2)c1ccc(F)cc1Cl [16u, 6-((S)-2-Methyl-pyrrolidine-1-carbonyl)-3,4-dihydro-1H-pyrrolo[2,1-c][1,4]oxazine-8-carboxylic acid [(R)-1-(2-chloro-4-fluoro-phenyl)-propyl]-amide]
0.1 | CC[C@H](NC(=O)c1cc(C(=O)N[C@H](CC)c2ccccc2)c2n1CCOC2)c1ccccc1 [16hs, 3,4-Dihydro-1H-pyrrolo[2,1-c][1,4]oxazine-6,8-dicarboxylic acid 6-[((S)-1-phenyl-propyl)-amide] 8-[((R)-1-phenyl-propyl)-amide]]
0.15 | CC[C@@H](NC(=O)c1cc(C(=O)N2CC3CC3C2)n2c1COCC2)c1ccccc1 (stereo partly drawn) [16fe, 6-(3-Aza-bicyclo[3.1.0]hexane-3-carbonyl)-3,4-dihydro-1H-pyrrolo[2,1-c][1,4]oxazine-8-carboxylic acid ((R)-1-phenyl-propyl)-amide]
0.049 | CC[C@@H](NC(=O)c1cc(C(=O)N2CCC[C@@H]2C(F)(F)F)n2c1COCC2)c1ccccc1 [16eu, 6-((R)-2-Trifluoromethyl-pyrrolidine-1-carbonyl)-3,4-dihydro-1H-pyrrolo[2,1-c][1,4]oxazine-8-carboxylic acid ((R)-1-phenyl-propyl)-amide]
0.13 | CC[C@@H](NC(=O)c1cc(C(=O)N2CCC[C@@H]2COC)c2n1CCOC2)c1ccccc1 [16kk, 8-((R)-2-Methoxymethyl-pyrrolidine-1-carbonyl)-3,4-dihydro-1H-pyrrolo[2,1-c][1,4]oxazine-6-carboxylic acid ((R)-1-phenyl-propyl)-amide]
0.067 | CC[C@H](NC(=O)c1cc(C(=O)N[C@@H](c2ccc(F)cc2)C(C)C)c2n1CCOC2)c1ccccc1 [16jq, 3,4-Dihydro-1H-pyrrolo[2,1-c][1,4]oxazine-6,8-dicarboxylic acid 8-{[(R)-1-(4-fluoro-phenyl)-2-methyl-propyl]-amide} 6-[((S)-1-phenyl-propyl)-amide]]
